Assay [1] is filed under the species Oryctolagus cuniculus. Put plainly: Inhibition of rabbit GSKbeta assessed as [32P]-phosphorylation of substrate up to 50 uM after 1 hr by scintillation counting.
Assay [2] can be described thus: Inhibition of rabbit GSKbeta assessed as [32P]-phosphorylation of substrate after 1 hr by scintillation counting. Set-up: species or system Oryctolagus cuniculus.

Active and inactive are the calls of the source. The calls are words filed in the database; no cut-off is given here.

For the compound `CC(O)C[C@H](O)[C@H](O)C[C@H](O)CCC(=O)NCCS(=O)(=O)O` (some centres undefined), the inhibition entry in assay [1] is “inactive”.
Turning to `CCCCC/C=C/C(O)CCCCC/C=C/C(CCCCCCCC(=O)OC(C)C[C@H](O)[C@H](O)C[C@H](O)CCC(=O)NCCS(=O)(=O)O)OC(C)=O` (some centres undefined) [CARTERIOSULFONIC ACID B], the IC50 (usually the midpoint of a concentration-inhibition curve) in assay [2] came to 6.8 µM.
Same read-out and setting: under `CCCCC/C=C/C(O)CCCCCCCCCCCCCC(=O)OC(C)C[C@H](O)[C@H](O)C[C@H](O)CCC(=O)NCCS(=O)(=O)O` (mixture of isomers) [CARTERIOSULFONIC ACID C] stands 6.8 µM; under `CCCCC/C=C/C(O)CCCCC/C=C/C(O)CCCCCCCC(=O)OC(C)C[C@H](O)[C@H](O)C[C@H](O)CCC(=O)NCCS(=O)(=O)O` (mixture of isomers) [CARTERIOSULFONIC ACID A], 12.5 µM.

(Values after ChEMBL document CHEMBL1154308, “Carteriosulfonic acids A-C, GSK-3beta inhibitors from a Carteriospongia sp” (J Nat Prod, 2009).)
